Assay results taken from patent EP4772500A1, “NOVEL ISOXAZOLE COMPOUND AS TM4SF5-SPECIFIC INHIBITOR AND USE THEREOF” (Seoul National University R&DB Foundation, priority 2023, dated 2025).

Tests used:
TM4SF5 and SLAMF7 = target: T1, TM4SF5 and SLAMF7 (Homo sapiens, UniProt O14894); assay: Streptavidin pulldown: binding between TM4SF5 and SLAMF7; assay type: cell-based
T1 construct: expressed in transfected cells; host or cells: SNU761 human hepatocellular carcinoma cells
T1 sequence (O14894 1-197): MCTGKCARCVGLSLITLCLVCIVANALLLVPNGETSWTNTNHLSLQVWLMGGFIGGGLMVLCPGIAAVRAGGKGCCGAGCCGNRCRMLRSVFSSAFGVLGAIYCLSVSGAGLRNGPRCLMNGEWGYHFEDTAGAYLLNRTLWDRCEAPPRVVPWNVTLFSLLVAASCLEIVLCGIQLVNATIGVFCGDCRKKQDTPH
Experimental: Cells were cultured to ~60% density in a cell incubator at 37°C and 5% CO2, and then transfected using PEI and cultured in a cell incubator at 37°C for two days. After cultivation, cell extracts were obtained by the method described above. After precipitating a desired protein from the cell extracts using an immunoprecipitation method, the binding proteins were identified by the Western blot technique described above. Specifically, cells cultured in a 100 mm cell culture dish for two days were washed twice with PBS, and protease inhibitor cocktails (GenDepot, USA) were added to 500 µl of immunoprecipitation lysis buffer (0.5% Triton X-100 or Brij 58, 40 mM HEPES, 150 mM NaCl, 1 mM EDTA, pH 7.4), followed by treatment at 4°C for 15 minutes. After collecting the cells, centrifugation was performed at 12,000x g at 4°C for 15 minutes, and the supernatant was transferred to a new microcentrifuge tube to obtain a cell extract. Proteins therein were quantified using a BCA reagent (Thermo Scientifics, USA). An electrophoresis sample was prepared by adding 4x laemmli sample buffer to a portion of the quantified sample and boiling at 100°C for 5 minutes. For immunoprecipitation, Streptavidin Agarose Resin (Thermo Fisher Scientific) or anti-HA antibody-coated Sepharose beads were added in proportion to the quantified protein amount, followed by rotation at 4°C for 4 hours, and then centrifugation was performed at 7,000x g at 4°C for 5 minutes and the supernatant was discarded. […] (f) After treating NK92-EV or NK92-TM4SF5 cells with DMSO or drugs ST-2-001 (1 nM), ST-3-005 (10 nM or 1 µM), ST-5-001, or ST-5-002 (100 nM or 1 µM) for 24 hours, the expression of SLAMF7 expressed on the cell surface was analyzed through immunostaining using flow cytometry. The expression level of SLAMF7 was confirmed by adding a SLAMF7 antibody to bind with SLAMF7 and then measuring the fluorescence linked to the SLAMF7 antibody using flow cytometry. […]

[1] = system: TM4SF5-expressing cells (SNU449T7); assay: Subcutaneous xenograft model of TM4SF5-expressing liver cancer cell line; assay type: in vivo, BALB/c-Nude mice; settings: for tumor volume / liver cancer formation inhibitory effect: 5 mg/kg IP every 3 days, 8 times; for tumor volume: vs vehicle (FIG. 11c); for liver cancer formation inhibitory effect: images of recovered cancer tissues (FIG. 11b); for expressions of factors related to fibrosis, inflammation-related cytokines/chemokines (CCL2, CCL5, or CCL20), and AFP: cancer tissues vs vehicle (FIG. 11e); for phosphorylation of FAK, STAT3, c-Src, Akt and p27: liver cancer tissue extracts, three days after last injection (FIG. 11d)
Experimental: The next day, the cells were detached by treating with a T/E (Trypsin/EDTA) solution and centrifuged at 150x g for 3 minutes to obtain a pellet. Thereafter, the supernatant was removed, and the pellet was prepared by resuspension in phosphate buffered saline (PBS). For the generation of liver cancer, 10^7 cells/100 µl were injected once subcutaneously into the right thigh area of 8-week-old male BALB/c-Nude mice. At this time, the animals were anesthetized by inhalation with […] and injected. From the 7th day after the cell injection, drugs ST-2-001, ST-3-006, and ST-3-011 were each intraperitoneally injected at 5 mg/kg of body weight for a total of 8 times every 3 days. The body weight of the animals was measured every week from the day of cell injection, and the tumor volume was measured every 3 days from the 7th day after the cell injection. The tumor volume was calculated as (length×width×width)/2 (mm^3) by measuring the length and width of the tumor. Finally, on the 31st day after the cell injection, the animals were sacrificed by a standard method, and liver tissues were obtained to analyze the liver cancer tissues.
Eight-week-old male BALB/c-Nude mice (n=8, Orient, Seongnam, Republic of Korea) were allowed free access to a normal diet, and TM4SF5-non-expressing cells (SNU449Cp) and TM4SF5-expressing cells (SNU449T7) were injected once subcutaneously at a dose of 10^7 cells per mouse. Starting from the 7th day after the cell injection, drug ST-2-001, ST-3-006, or ST-3-011 was intraperitoneally injected at 5 mg/kg of body weight every 3 days for a total of 8 times. Body weight and tumor volume were measured every week, and on the 31st day after the cell injection, the mice were anesthetized by a standard method, liver tissues were obtained, and the size of the liver cancer tissues was photographed. Thereafter, the tissues were randomly divided into several sets and analyzed by immunohistochemistry, Western blot, qRT-PCR, etc.

[2] = SNU761 expressing TM4SF5-Strep and FLAG-SLAMF7, 24 hours, brij58 lysis (FIG. 15e-f)

With `CC(=O)Nc1ccc(-c2cc(-c3ccc(O)cc3)no2)cc1` [ST-5-001, N-(4-(3-(4-hydroxyphenyl)isoxazole-5-yl)phenyl)acetamide] the “binding between TM4SF5 and SLAMF7” value (TM4SF5 and SLAMF7; 2.5 µM, 24 hours, SNU761 (FIG. 13j)) was “inhibited”.
In the case of `COc1ccc(-c2cc(-c3cccc(NC(C)=O)c3)no2)cc1` [ST-3-011, N-(3-(5-(4-methoxyphenyl)isoxazole-3-yl)phenyl)acetamide], the tumor volume [1] is reported as “statistically significantly inhibited”, the “liver cancer formation inhibitory effect” value [1] is reported as “relatively less than those of ST-2-001” and the “expressions of factors related to fibrosis, inflammation-related cytokines/chemokines (CCL2, CCL5, or CCL20), and AFP” value [1] is reported as “decreased”. For the same molecule, the “phosphorylation of FAK, STAT3, c-Src, Akt and p27” value (from here on “phosphorylation of FAK, STAT3”) [1] was “significantly inhibited”.
For `COc1cccc(-c2cc(-c3ccc(NC(C)=O)cc3)no2)c1` [ST-3-001, N-(4-(5-(3-methoxyphenyl)isoxazole-3-yl)phenyl)acetamide], the “binding between TM4SF5 and SLAMF7” value (TM4SF5 and SLAMF7; [2]) was “did not decrease but rather showed an increasing trend”.
In the case of `COc1ccc(-c2cc(-c3ccc(NC(C)=O)cc3)no2)cc1` [ST-2-001, N-(4-(5-(4-methoxyphenyl)isoxazole-3-yl)phenyl)acetamide], the tumor volume [1] is reported as “statistically significantly inhibited”, the “liver cancer formation inhibitory effect” value [1] is reported as “the greatest” and the “expressions of factors related to fibrosis, inflammation-related cytokines/chemokines (CCL2, CCL5, or CCL20), and AFP” value [1] is reported as “decreased”. The “phosphorylation of FAK, STAT3” value [1] was “significantly inhibited”.
For `Cc1ccc(C(=O)Nc2ccc(-c3cc(-c4ccc(O)cc4)no3)cc2)cc1` [ST-5-002, N-(4-(3-(4-hydroxyphenyl)isoxazole-5-yl)phenyl)-4-methylbenzamide], the “binding between TM4SF5 and SLAMF7” value (TM4SF5 and SLAMF7; [2]) was “decreased”.
In the case of `CC(=O)Nc1ccc(-c2cc(-c3ccc(F)cc3)on2)cc1` [ST-3-006, N-(4-(5-(4-fluorophenyl)isoxazole-3-yl)phenyl)acetamide], the tumor volume [1] is reported as “statistically significantly inhibited”, the “liver cancer formation inhibitory effect” value [1] is reported as “relatively less than those of ST-2-001” and the “expressions of factors related to fibrosis, inflammation-related cytokines/chemokines (CCL2, CCL5, or CCL20), and AFP” value [1] is reported as “decreased”. The “phosphorylation of FAK, STAT3” value [1] was “significantly inhibited”.
